The results in this text go back to publication PMC7112222, “Investigation of pyrimidine nucleoside analogues as chemical probes to assess compound effects on the proliferation of Trypanosoma cruzi intracellular parasites” (PLoS Neglected Tropical Diseases, 2020).

Some results are limits rather than exact numbers.

In this test the test system is 3T3 cells. Put plainly: Image-based assay, effect on 3T3 host cells. The format is cell-based.

Take `C#Cc1cn([C@H]2C[C@H](O)[C@@H](CO)O2)c(=O)[nH]c1=O` [EdU, 5-ethynyl-2′-deoxy-uridine]: under “2 and 4 hour exposures, 73 μM”, the “activity against host cells after short exposure” value is on record as “less than 20%”. Also, the “Host cell 3T3 IC50 value 48 h” value (48 h, highest test concentration 183 μM) is “NA (NA = ≤50% activity at the highest concentration tested and an IC50 value could not be determined)”. Under “48 hours”, the “activity against 3T3 cells in the image-based assay” value was below 20%.
